In this assay the test system is HEK293T cells carrying the ATF4 luciferase reporter. Put plainly: ATF4-Luc assay (in vitro model of VWMD). The format is cell-based, human. The conditions noted are these: Homo sapiens, HEK-293T, 1 μg/mL tunicamycin, 7 hours, One Glo luminescence. The method, then:
In order to test exemplary compounds of the invention in a cellular context, a stable VWMD cell line was first constructed. The ATF4 reporter was prepared by fusing the human full-length ATF4 5′-UTR (NCBI Accession No. BC022088.2) in front of the firefly luciferase (FLuc) coding sequence lacking the initiator methionine as described in Sidrauski et al (eLife 2013). The construct was used to produce recombinant retroviruses using standard methods and the resulting viral supernatant was used to transduce HEK293T cells, which were then subsequently selected with puromycin to generate a stable cell line.
HEK293T cells carrying the ATF4 luciferase reporter were plated on polylysine coated 384-well plates (Greiner Bio-one) at 30,000 cells per well. Cells were treated the next day with 1 μg/mL tunicamycin and 200 nM of a compound of Formula (I) for 7 hours. Luminescence was measured using One Glo (Promega) as specified by the manufacturer. Cells were maintained in DMEM with L-glutamine supplemented with 10% heat-inactivated FBS (Gibco) and Antibiotic-Antimycotic solution (Gibco).
Table 4 below summarizes the EC50 data obtained using the ATF4-Luc assay for exemplary compounds of the invention.

SMILES strings stand for the structures. Some results are limits rather than exact numbers.

Regarding `O=C(CO[C@H]1C[C@@H](OC(F)(F)F)C1)NC12CCC(NC(=O)[C@H]3C[C@@H](O)c4cc(F)c(F)cc4O3)(CC1)CC2` [Compound 194, (2R,4R)-6,7-difluoro-4-hydroxy-N-[4-(2-{[cis-3-(trifluoromethoxy)cyclobutyl]oxy}acetamido)bicyclo[2.2.2]octan-1-yl]-3,4-dihydro-2H-1-benzopyran-2-carboxamide], the EC50 was less than 10 nM.
Under `O=C(CO[C@H]1C[C@@H](OC(F)(F)F)C1)NC12CC(NC(=O)[C@H]3CC(=O)c4cc(Cl)ccc4O3)(C1)C2` [Compound 162, (2R)-6-chloro-4-oxo-N-[3-(2-{[cis-3-(trifluoromethoxy)cyclobutyl]oxy}acetamido)bicyclo[1.1.1]pentan-1-yl]-3,4-dihydro-2H-1-benzopyran-2-carboxamide] stands 10 to 50 nM.
Consider `O=C(NC12CC(c3cc(-c4ccc(Cl)c(F)c4)no3)(C1)C2)[C@@H]1C[C@@H](O)c2cc(Cl)ccc2O1` [Compound 249, (2S,4R)-6-chloro-N-{3-[3-(4-chloro-3-fluorophenyl)-1,2-oxazol-5-yl]bicyclo[11.11]pentan-1-yl}-4-hydroxy-3,4-dihydro-2H-1-benzopyran-2-carboxamide], for which the EC50 lay in the range of 50 to 250 nM.
Under `O=C(NC12CC(n3cc(-c4ccc(OC(F)(F)F)cn4)cn3)(C1)C2)[C@H]1C[C@@H](O)c2cc(Cl)ccc2O1` [Compound 308, (2R,4R)-6-chloro-4-hydroxy-N-(3-{4-[5-(trifluoromethoxy)pyridin-2-yl]-1H-pyrazol-1-yl}bicyclo[1.1.1]pentan-1-yl)-3,4-dihydro-2H-1-benzopyran-2-carboxamide] stands less than 10 nM; under `O=C(NC12CC(C3=NOC([C@H]4C[C@@H](O)C4)C3)(C1)C2)[C@H]1C[C@@H](O)c2cc(Cl)ccc2O1` (stereo partly drawn) [Compound 227, (2R,4R)-6-chloro-4-hydroxy-N-(3-{5-[cis-3-hydroxycyclobutyl]-4,5-dihydro-1,2-oxazol-3-yl}bicyclo[1.1.1]pentan-1-yl)-3,4-dihydro-2H-1-benzopyran-2-carboxamide], greater than 2000 nM.
Under `O=C1C[C@H](C(=O)N[C@H]2CC[C@H](N3CCN(C4CC(OC(F)(F)F)C4)C3=O)CC2)Oc2ccc(Cl)cc21` (stereo partly drawn) [Compound 188, (2R)-6-chloro-4-oxo-N-[(1r,4R)-4-{2-oxo-3-[3-(trifluoromethoxy)cyclobutyl]imidazolidin-1-yl}cyclohexyl]-3,4-dihydro-2H-1-benzopyran-2-carboxamide] stands greater than 2000 nM.
`O=C(NC12CC(c3cc(-c4ccc(Cl)c(F)c4)on3)(C1)C2)[C@@H]1C[C@@H](O)c2cc(Cl)ccc2O1` [Compound 259, (2S,4R)-6-chloro-N-{3-[5-(4-chloro-3-fluorophenyl)-1,2-oxazol-3-yl]bicyclo[11.11]pentan-1-yl}-4-hydroxy-3,4-dihydro-2H-1-benzopyran-2-carboxamide]: the EC50 lay in the range of 10 to 50 nM.
Under `O=C(CO[C@H]1C[C@@H](OC(F)(F)F)C1)NC12CCC(NC(=O)[C@H]3C[C@@H](O)c4cc(Cl)ccc4O3)(CC1)CC2` [Compound 195, (2R,4R)-6-chloro-4-hydroxy-N-[4-(2-{[cis-3-(trifluoromethoxy)cyclobutyl]oxy}acetamido)bicyclo[2.2.2]octan-1-yl]-3,4-dihydro-2H-1-benzopyran-2-carboxamide] stands less than 10 nM; under `O=C(COc1ccc(Cl)c(F)c1)NC1CC2(C1)CN(C(=O)C1CC(=O)c3cc(Cl)ccc3O1)C2` (centres unmarked) [Compound 144, 2-(4-chloro-3-fluorophenoxy)-N-[2-(6-chloro-4-oxo-3,4-dihydro-2H-1-benzopyran-2-carbonyl)-2-azaspiro[3.3]heptan-6-yl]acetamide], 50 to 250 nM.
Under `O=C(NC12CC(c3cc(-c4ccc(C(F)(F)F)nc4)no3)(C1)C2)[C@@H]1C[C@@H](O)c2cc(Cl)ccc2O1` [Compound 251, (2S,4R)-6-chloro-4-hydroxy-N-(3-{3-[6-(trifluoromethyl)pyridin-3-yl]-1,2-oxazol-5-yl}bicyclo[1.1.1]pentan-1-yl)-3,4-dihydro-2H-1-benzopyran-2-carboxamide] stands greater than 2000 nM; under `O=C(COc1ccc(Cl)c(F)c1)NC1CC2(C1)CN(C(=O)[C@@H]1C[C@H](O)c3cc(Cl)ccc3O1)C2` (racemic) [Compound 145, 2-(4-chloro-3-fluorophenoxy)-N-{2-[rac-(2R,4R)-6-chloro-4-hydroxy-3,4-dihydro-2H-1-benzopyran-2-carbonyl]-2-azaspiro[3.3]heptan-6-yl}acetamide], 50 to 250 nM.
In the case of `O=C(CO[C@H]1C[C@@H](OC(F)(F)F)C1)N[C@H]1CC[C@H](NC(=O)[C@H]2C[C@@H](O)c3cc(Cl)ccc3O2)CC1` [Compound 214, (2R,4R)-6-chloro-4-hydroxy-N-[trans-4-(2-{[cis-3-(trifluoromethoxy)cyclobutyl]oxy}acetamido)cyclohexyl]-3,4-dihydro-2H-1-benzopyran-2-carboxamide], the EC50 was in the range of 10 to 50 nM.
Under `O=C(NC12CC(c3cc(-c4ccc(C(F)(F)F)nc4)no3)(C1)C2)[C@H]1C[C@@H](O)c2cc(Cl)ccc2O1` [Compound 250, (2R,4R)-6-chloro-4-hydroxy-N-(3-{3-[6-(trifluoromethyl)pyridin-3-yl]-1,2-oxazol-5-yl}bicyclo[1.1.1]pentan-1-yl)-3,4-dihydro-2H-1-benzopyran-2-carboxamide] stands 50 to 250 nM; under `O=C(COc1ccc(Cl)c(F)c1)NC12CC(C(=O)NC[C@H]3C[C@@H](O)c4cc(Cl)ccc4O3)(C1)C2` (racemic) [Compound 104, 3-[2-(4-chloro-3-fluorophenoxy)acetamido]-N-{[rac-(2R,4R)-6-chloro-4-hydroxy-3,4-dihydro-2H-1-benzopyran-2-yl]methyl}bicyclo[1.1.1]pentane-1-carboxamide], 10 to 50 nM.
With `O=C(CO[C@H]1C[C@@H](OC(F)(F)F)C1)NC12CCC(NC(=O)COc3ccc(Cl)c(F)c3)(CC1)[C@@H](O)C2` [Compound 112, 2-(4-chloro-3-fluorophenoxy)-N-[(2S)-2-hydroxy-4-(2-{[(1s,3R)-3-(trifluoromethoxy)cyclobutyl]oxy}acetamido)bicyclo[2.2.2]octan-1-yl]acetamide] the figure was less than 10 nM; with `O=C1C[C@H](C(=O)NC23CC(NC(=O)[C@@H]4C[C@@H]4COC(F)(F)F)(C2)C3)Oc2ccc(Cl)cc21` (mixture of isomers) [Compound 296, (2R)-6-chloro-4-oxo-N-[3-({(1RS,2SR)-2-[(trifluoromethoxy)methyl]cyclopropane-1-carbonyl}amino)bicyclo[1.1.1]pentan-1-yl]-3,4-dihydro-2H-1-benzopyran-2-carboxamide], 500 to 2000 nM.
With `O=C1CC(C(=O)NC23CC(C(=O)NCc4ccc(C(F)(F)F)cn4)(C2)C3)Oc2ccc(Cl)cc21` (centres unmarked) [Compound 134, 6-chloro-4-oxo-N-[3-({[5-(trifluoromethyl)pyridin-2-yl]methyl}carbamoyl)bicyclo[1.1.1]pentan-1-yl]-3,4-dihydro-2H-1-benzopyran-2-carboxamide] the figure was 250 to 500 nM.
On to `O=C(N[C@H]1CC[C@H](N2CCN(c3cnc(C(F)F)cn3)C2=O)CC1)[C@H]1C[C@@H](O)c2cc(Cl)ccc2O1` [Compound 303, (2R,4R)-6-chloro-N-[trans-4-{3-[5-(difluoromethyl)pyrazin-2-yl]-2-oxoimidazolidin-1-yl}cyclohexyl]-4-hydroxy-3,4-dihydro-2H-1-benzopyran-2-carboxamide], for which the EC50 lay within 50 to 250 nM.
As for `O=C(CO[C@H]1C[C@@H](OC(F)(F)F)C1)NC12CCC(C(=O)NCc3ccc(C(F)(F)F)cn3)(CC1)CC2` [Compound 157], the EC50 was greater than 2000 nM.
With `O=C(N[C@H]1CC[C@H](N2CCN(c3cnc(C(F)F)cn3)C2=O)CC1)[C@H]1C[C@@H](O)c2cc(Cl)ccc2O1` (racemic) [Compound 136, rac-(2R,4R)-6-chloro-N-[(1r,4R)-4-{3-[5-(difluoromethyl)pyrazin-2-yl]-2-oxoimidazolidin-1-yl}cyclohexyl]-4-hydroxy-3,4-dihydro-2H-1-benzopyran-2-carboxamide] the figure was 50 to 250 nM.
As for `O=C(NC12CC(n3cnc(-c4ccc(C(F)(F)F)nc4)c3)(C1)C2)[C@H]1C[C@@H](O)c2cc(Cl)ccc2O1` [Compound 201, (2R,4R)-6-chloro-4-hydroxy-N-(3-{4-[6-(trifluoromethyl)pyridin-3-yl]-1H-imidazol-1-yl}bicyclo[1.1.1]pentan-1-yl)-3,4-dihydro-2H-1-benzopyran-2-carboxamide], the EC50 was less than 10 nM.
As to `O=C(N[C@H]1C[C@H]2C[C@@H]1C[C@@H]2n1cnc(-c2ccc(F)c(F)c2)c1)[C@H]1C[C@@H](O)c2cc(Cl)ccc2O1` [Compound 304, (2R,4R)-6-chloro-N-{(1R,2S,4R,5S)-5-[4-(3,4-difluorophenyl)-1H-imidazol-1-yl]bicyclo[2.2.1]heptan-2-yl}-4-hydroxy-3,4-dihydro-2H-1-benzopyran-2-carboxamide], the EC50 is less than 10 nM.
Under `O=C(NC12CCC(NC(=O)[C@H]3C[C@@H](OC(F)(F)F)C3)(CC1)[C@@H](O)C2)c1cc(=O)c2cc(Cl)ccc2o1` [Compound 146, 6-chloro-N-[(3S)-3-hydroxy-4-{[(1s,3R)-3-(trifluoromethoxy)cyclobutane-1-carbonyl]amino}bicyclo[2.2.2]octan-1-yl]-4-oxo-4H-1-benzopyran-2-carboxamide] stands 250 to 500 nM.

Usually EC50 stands for the midpoint of the concentration-response curve.
